US20160067208A1, “ADHESION PREVENTING AGENT” (FARNEX INCORPORATED, priority 2013, published 2016)

Experiments:
Assay type in all cases: physicochemical
[1] = SAXS analysis of compound/water system (liquid crystal formation); settings: compound/water system gel, 50% by mass in water-excess condition, room temperature (25° C.)
Text: Whether or not a liquid crystal structure has a cubic lattice may be determined by a small-angle X-ray scattering (SAXS) method, for the purpose of confirming liquid crystal formation. First, an amphipathic compound/water system sample with a predetermined concentration can be filled into an X-ray capillary tube made of quartz, for example, and the capillary tube is sealed with an oxy-fuel burner, and subjected to SAXS assay.
Mono-O-(5,9,13-trimethyltetradeca-4,8,12-trienoyl)glycerol synthesized in Example 1 and pure water were introduced into a mixing device at the concentration of 50% by mass of mono-O-(5,9,13-trimethyltetradeca-4,8,12-trienoyl)glycerol (in water-excess condition), and they were mixed at room temperature (25° C.) and left for 24 hours to obtain a homogeneous mixture. Then the separated water was removed. Thus, a sample of mono-O-(5,9,13-trimethyltetradeca-4,8,12-trienoyl)glycerol/water system was obtained as a white turbid to colorless transparent gel composition in appearance (it was referred to below as the gel sample).
Subsequently, the gel sample was analyzed by small-angle x-ray scattering (SAXS). The NANO-Viewer nano-scale X-ray structure analysis equipment (Rigaku) was used for SAXS analysis, which was performed by X-ray irradiation at room temperature (25° C.), 40 kV, 50 mA, wavelength λ=0.1542 nm (Cu-Kα).
Each of the compounds synthesized in Example 32, 33, 43, 45, 49, and 50 and water were homogeneously mixed in accordance with the same procedure as in Example 9 to obtain a sample of each compound/water system being a gel in appearance. SAXS analysis of these gel samples was performed in the same manner as in Example 9. […]

[2] = Shear viscosity of liquid crystal gels; settings: gel prepared by addition of water, 25° C.
Description: (§1) The viscosity was measured for the gels prepared by addition of water to the compounds synthesized in Examples 1, 4, and 5. Specifically, for the gel samples obtained by mixing homogeneously according to the same procedure as in Example 9, the shear viscosity was measured at a temperature of 25° C., using a viscosity and viscoelasticity measuring apparatus (Gemini II, Malvern Instruments Ltd.; cone plate φ25, cone angle 1°).
as §1, with “45” for “1, 4,”, “50, and C17 glycerin ester synthesized in Example 13.” for “5.”

[3] = Viscosity of the compound itself (Gemini II, Malvern); settings: 25° C., at shear velocity of 92 1/s
Description: In addition, the amphipathic compound to be used for the adhesion preventing agent of the present invention has low viscosity in itself. Specifically, the amphipathic compound to be used for the adhesion preventing agent of the present invention has a viscosity of preferably 15.0 Pa·s or less, more preferably 11.0 Pa·s or less, and further preferably 6.0 Pa·s or less as measured at 25° C. in itself. The viscosity can be measured using, for example, a viscosity and viscoelasticity measuring apparatus (Gemini II, Malvern Instruments Ltd.) at 25° C.
The viscosity of each of the compounds described in the Examples 1-7 was measured using a viscosity/viscoelasticity measuring instrument (Gemini II, Malvern) at the temperature of 25° C.

[4] = Preparability and temperature stability of comparative formulations; settings: 0.65 cs dimethicone (GMO: 1.00 g in 2.33 g)
Description: 2.33 g of 0.65 cs dimethicone (Dow Corning Q7-9180 Silocon Fluid 0.65 CST) was added to 1.00 g of GMO (Rikemal XO-100L, Riken Vitamin Co., Ltd.), followed by stirring to prepare a solution.
Additionally, an o/w dispersion of GMO having the same composition as test sample 18 as described above was prepared, and stored at a refrigerated temperature (7° C.). […] Thus, it is shown that the o/w dispersion of GMO has low temperature stability.
In accordance with Example 14 described in JP Patent Publication No. 2008-528463A, GDO (4.30 g), SPC (Lecinol S-10E, 2.90 g), P80 (1.80 g), and ethanol (1.00 g) were mixed to prepare a liquid crystal precursor composition (GDO/SPC/P80/EtOH=43:29:18:10).
6 mL of distilled water was added to 1.388 g of the liquid crystal precursor composition, followed by stirring for 1 hour to prepare test sample 6 (GDO/SPC/P80/EtOH/water=[…]:81.2).
Thus, it was impossible to prepare a lipid/dimethicone preparation, unlike test samples 13, 14, 21 and 23. […] It was considered that this was due to high viscosity of the sample.

Viscosity ([2]; shear velocity 12 1/s) [Pas · sec]	Viscosity ([2]; shear velocity 100.8 1/s) [Pas · sec]	Viscosity [3] [Pa·s]	Viscosity ([2]; shear velocity 10 1/s) [Pas · sec]	Viscosity ([2]; shear velocity 105 1/s) [Pas · sec]	SMILES	liquid crystal structure (SAXS peak value ratio) [1]	state / solubility in dimethicone [4]
39	1.4	0.37	–	–	CC(C)=CCC/C(C)=C/CC/C(C)=C/CCC(C)=CCCC(=O)OCC(O)CO (racemic) [Example 4, mono-O-(5,9,13,17-tetramethyloctadeca-4,8,12,16-tetraenoyl)glycerol]	reverse hexagonal liquid crystal	–
–	–	3.3	–	–	CC(C)=CCC/C(C)=C/CC/C(C)=C/CCC(C)=CCCC(=O)OCC(CO)(CO)CO (racemic) [Example 6, mono-O-(5,9,13,17-tetramethyloctadeca-4,8,12,16-tetraenoyl)pentaerythritol]	cubic liquid crystal that belongs to the crystallographic space group Pn3m	–
–	–	0.63	–	–	CC(C)=CCC/C(C)=C/CCC(C)=CCCCOCC(CO)(CO)CO (racemic) [Example 33, mono-O-(5,9,13-trimethyltetradeca-4,8,12-trienyl)pentaerythritol]	cubic liquid crystals that belong to the crystallographic space group Pn3m	–
–	–	14	–	–	CC(C)=CCC/C(C)=C/CC/C(C)=C/CCC(C)=CC(=O)OCC(CO)(CO)CO (racemic) [Example 43, mono-O-(3,7,11,15-tetramethylhexadeca-2,6,10,14-tetraenoyl)pentaerythritol]	reverse hexagonal liquid crystals	–
461	37	0.26	–	–	CC(C)=CCC/C(C)=C/CCC(C)=CCCC(=O)OCC(O)CO (centres unmarked) [Example 1, mono-O-(5,9,13-trimethyltetradeca-4,8,12-trienoyl)glycerol]	cubic liquid crystal that belongs to the crystallographic space group Pn3m	–
333	17	5.8	–	–	CC(C)=CCC/C(C)=C/CC/C(C)=C/CCC(C)=CCCC(=O)OCC(O)C(O)CO (centres unmarked) [Example 5, mono-O-(5,9,13,17-tetramethyloctadeca-4,8,12,16-tetraenoyl)erythritol]	cubic liquid crystal that belongs to the crystallographic space group Pn3m	–
–	–	0.48	1878	166	CC(=CCCC(=O)OCC(O)CO)CCCC(C)CCCC(C)C (centres unmarked) [Example 13, mono-O-(5,9,13-trimethyltetradec-4-enoyl)glycerol]	–	–
–	–	1.2	–	–	CC(C)=CCC/C(C)=C/CCC(C)=CCCCOCC(O)C(O)CO (centres unmarked) [Example 32, mono-O-(5,9,13-trimethyltetradeca-4,8,12-trienyl)erythritol]	cubic liquid crystals that belong to the crystallographic space group Pn3m	–
–	–	1.9	314	4.3	CC(C)=CCC/C(C)=C/CC/C(C)=C/CCC(C)=CCOCC(O)C(O)CO (centres unmarked) [Example 45, mono-O-(3,7,11,15-tetramethylhexadeca-2,6,10,14-tetraenyl)erythritol]	cubic liquid crystals that belong to the crystallographic space group Pn3m	–
–	–	–	–	–	CC(C)=CCC/C(C)=C/CC/C(C)=C/CCC(C)=CCCCOCC(O)C(O)CO (centres unmarked) [Example 49, mono-O-(5,9,13,17-tetramethyloctadeca-4,8,12,16-tetraenyl)erythritol]	reverse hexagonal liquid crystals	–
–	–	0.78	81	14	CC(C)=CCC/C(C)=C/CC/C(C)=C/CCC(C)=CCCCOCC(CO)(CO)CO [Example 50, mono-O-(5,9,13,17-tetramethyloctadeca-4,8,12,16-tetraenyl)pentaerythritol]	reverse hexagonal liquid crystals	–
–	–	0.98	–	–	CC(=CCCCOCC(CO)(CO)CO)CCCC(C)CCCC(C)C (centres unmarked) [Example 56, mono-O-(5,9,13-trimethyltetradec-4-enyl)pentaerythritol]	–	–
–	–	0.44	–	–	CC(=CCCCOCC(O)CO)CCCC(C)CCCC(C)CCCC(C)C (centres unmarked) [Example 58, mono-O-(5,9,13,17-tetramethyloctadec-4-enyl)glycerol]	–	–
–	–	–	–	–	CCCCCCCC/C=C\CCCCCCCC(=O)OCC(O)CO (centres unmarked) [GMO, Glyceryl Monooleate]	–	crystals were precipitated
